Experimental data as given in patent US8802597B2, “Herbicidal pyrimidines” (E I du Pont de Nemours and Company, priority 2003, dated 2014).
Where two headings read alike, the source gives them in different places.

Assays:
Type in all cases: in vivo
[1] = tested on: morningglory (Ipomoea spp.); assay: Test A pre/postemergence; settings: Ipomoea, 240 h, read-out: Plant response rating, Morningglory; for pest or weed control at 125 g/ha: 125 g ai/ha; for pest or weed control at 500 g/ha: 500 g ai/ha
Method in brief: (§1)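 Seeds in loam–sand blend received preemergence directed soil spray and, concurrently, postemergence application (plants 2–10 cm, 1–2-leaf stage) of compound in non-phytotoxic solvent with surfactant. After about ten days in greenhouse, injury rated visually versus untreated controls, 0 (no effect) to 100 (complete control).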

[2] = tested on: giant foxtail (Setaria faberi); assay: Test A pre/postemergence; settings: Setaria faberi, 240 h, read-out: Plant response rating, Foxtail, Giant; for pest or weed control at 125 g/ha: 125 g ai/ha; for pest or weed control at 500 g/ha: 500 g ai/ha
Method in brief: as §1

[3] = tested on: velvetleaf (Abutilon theophrasti); assay: Test A pre/postemergence; settings: Abutilon theophrasti, 240 h, read-out: Plant response rating, Velvetleaf; for pest or weed control at 125 g/ha: 125 g ai/ha; for pest or weed control at 500 g/ha: 500 g ai/ha
Method in brief: as §1

[4] = tested on: barnyardgrass (Echinochloa crus-galli); assay: Test A pre/postemergence; settings: Echinochloa crus-galli, 240 h, read-out: Plant response rating, Barnyardgrass; for pest or weed control at 125 g/ha: 125 g ai/ha; for pest or weed control at 500 g/ha: 500 g ai/ha
Method in brief: as §1

[5] = tested on: redroot pigweed (Amaranthus retroflexus); assay: Test A pre/postemergence; settings: Amaranthus retroflexus, 240 h, read-out: Plant response rating, Pigweed; for pest or weed control at 125 g/ha: 125 g ai/ha; for pest or weed control at 500 g/ha: 500 g ai/ha
Method in brief: as §1

[6] = tested on: crabgrass (Digitaria sanguinalis); assay: Test A pre/postemergence; settings: Digitaria sanguinalis, 240 h, read-out: Plant response rating, Crabgrass; for pest or weed control at 125 g/ha: 125 g ai/ha; for pest or weed control at 500 g/ha: 500 g ai/ha
Method in brief: as §1

[7] = tested on: lambsquarters (Chenopodium album); assay: Test C pre/postemergence; settings: Chenopodium album; for pest or weed control at 31 g/ha: 31 g ai/ha; for pest or weed control at 62 g/ha: 62 g ai/ha; for pest or weed control at 125 g/ha: 125 g ai/ha; for pest or weed control at 250 g/ha: 250 g ai/ha
Method in brief: (§2)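 Pre: seeds planted, sprayed same day. Post: 1- to 4-leaf plants (2–18 cm). Formulation: non-phytotoxic solvent + surfactant. Greenhouse 12–14 d; visual % control vs untreated, 0–100.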

[8] = tested on: common ragweed (Ambrosia elatior); assay: Test C pre/postemergence; settings: Ambrosia artemisiifolia; for pest or weed control at 31 g/ha: 31 g ai/ha; for pest or weed control at 62 g/ha: 62 g ai/ha; for pest or weed control at 125 g/ha: 125 g ai/ha; for pest or weed control at 250 g/ha: 250 g ai/ha
Method in brief: as §2

[9] = tested on: cocklebur (Xanthium strumarium); assay: Test C pre/postemergence; settings: Xanthium strumarium; for pest or weed control at 31 g/ha: 31 g ai/ha; for pest or weed control at 62 g/ha: 62 g ai/ha; for pest or weed control at 125 g/ha: 125 g ai/ha
Method in brief: as §2

corn (Zea mays) = assay: Test C pre/postemergence; settings: Zea mays; for Corn plant response rating (crop injury, 0 = no effect, 100 = complete kill) at 31 g/ha: 31 g ai/ha; for Corn plant response rating (crop injury, 0 = no effect, 100 = complete kill) at 62 g/ha: 62 g ai/ha; for Corn plant response rating (crop injury, 0 = no effect, 100 = complete kill) at 125 g/ha: 125 g ai/ha
Method in brief: as §2

[10] = tested on: chickweed (Stellaria media); assay: Test C postemergence; settings: Stellaria media, post-emergence
Method in brief: as §2

[11] = post-emergence, Postemergence, 0 to 100 scale (0 no effect, 100 complete control)
[12] = pre-emergence, Preemergence, 0 to 100 scale where 0 is no effect and 100 is complete control, approximately ten days
[13] = post-emergence, Postemergence, scale 0 to 100 (0 no effect, 100 complete control), read-out: Lambsquarters plant response rating
[14] = pre-emergence, Preemergence, scale 0 to 100, 0 no effect, 100 complete control, read-out: Plant response rating, Lambsquarters
[15] = pre-emergence, Preemergence, scale 0 to 100, read-out: Plant response rating, Lambsquarters
[16] = post-emergence, Postemergence, scale 0 to 100 (0 no effect, 100 complete control), read-out: Ragweed plant response rating
[17] = pre-emergence, Preemergence, scale 0 to 100, 0 no effect, 100 complete control, read-out: Plant response rating, Ragweed
[18] = pre-emergence, Preemergence, scale 0 to 100, read-out: Plant response rating, Ragweed
[19] = post-emergence, Postemergence, scale 0 to 100 (0 no effect, 100 complete control), read-out: Cocklebur plant response rating
[20] = pre-emergence, Preemergence, scale 0 to 100, 0 no effect, 100 complete control, read-out: Plant response rating, Cocklebur
[21] = post-emergence, Postemergence, scale 0 to 100 (0 no effect, 100 complete control), read-out: Corn plant response rating
[22] = pre-emergence, Preemergence, scale 0 to 100, 0 no effect, 100 complete control, read-out: Plant response rating, Corn

Q: How did the pest or weed control at 125 g/ha [1, 11] turn out when CCOC(=O)c1nc(-c2ccc(Cl)cc2)nc(N)c1Cl [Compound 64, ethyl 6-amino-5-chloro-2-(4-chlorophenyl)-4-pyrimidinecarboxylate] was run?
A: 80%

Q: And the pest or weed control at 500 g/ha [1, 11]?
A: 95%

Q: What about the pest or weed control at 125 g/ha [1, 12] of the same compound?
A: 40%

Q: And the pest or weed control at 500 g/ha [1, 12]?
A: 70%

Q: And the pest or weed control at 125 g/ha [2, 11]?
A: 70%

Q: And the pest or weed control at 500 g/ha [2, 11]?
A: 80%

Q: What about the pest or weed control at 125 g/ha [2, 12] of the same compound?
A: 15%

Q: And the pest or weed control at 500 g/ha [2, 12]?
A: 70%

Q: What about the pest or weed control at 125 g/ha [3, 11] of the same compound?
A: 95%

Q: And the pest or weed control at 500 g/ha [3, 11]?
A: 100%

Q: And the pest or weed control at 125 g/ha [3, 12]?
A: 25%

Q: And the pest or weed control at 500 g/ha [3, 12]?
A: 95%

Q: What about the pest or weed control at 125 g/ha [4, 11] of the same compound?
A: 25%

Q: And the pest or weed control at 500 g/ha [4, 11]?
A: 70%

Q: What about the pest or weed control at 125 g/ha [4, 12] of the same compound?
A: 0%

Q: What about the pest or weed control at 500 g/ha [4, 12] of the same compound?
A: 60%

Q: What about the pest or weed control at 125 g/ha [5, 11] of the same compound?
A: 90%

Q: What about the pest or weed control at 500 g/ha [5, 11] of the same compound?
A: 100%

Q: What about the pest or weed control at 125 g/ha [5, 12] of the same compound?
A: 20%

Q: What about the pest or weed control at 500 g/ha [5, 12] of the same compound?
A: 100%

Q: And the pest or weed control at 125 g/ha [6, 11]?
A: 50%

Q: What about the pest or weed control at 500 g/ha [6, 11] of the same compound?
A: 70%

Q: And the pest or weed control at 125 g/ha [6, 12]?
A: 25%

Q: And the pest or weed control at 500 g/ha [6, 12]?
A: 90%

Q: And the pest or weed control at 31 g/ha ([7]; post-emergence, Postemergence, read-out: Plant response rating (scale of 0 to 100), Lambsquarters)?
A: 80%

Q: And the pest or weed control at 62 g/ha [7, 13]?
A: 90%

Q: And the pest or weed control at 125 g/ha [7, 13]?
A: 90%

Q: And the pest or weed control at 250 g/ha ([7]; post-emergence, Postemergence, scale 0 to 100, read-out: Plant response rating, Lambsquarters)?
A: 90%

Q: And the pest or weed control at 31 g/ha [7, 14]?
A: 70%

Q: What about the pest or weed control at 62 g/ha [7, 14] of the same compound?
A: 95%

Q: And the pest or weed control at 125 g/ha [7, 15]?
A: 95%

Q: And the pest or weed control at 250 g/ha [7, 15]?
A: 100%

Q: And the pest or weed control at 31 g/ha ([8]; post-emergence, Postemergence, read-out: Plant response rating (scale of 0 to 100), Ragweed)?
A: 75%

Q: What about the pest or weed control at 62 g/ha [8, 16] of the same compound?
A: 80%

Q: And the pest or weed control at 125 g/ha [8, 16]?
A: 85%

Q: What about the pest or weed control at 250 g/ha ([8]; post-emergence, Postemergence, scale 0 to 100, read-out: Plant response rating, Ragweed) of the same compound?
A: 90%

Q: What about the pest or weed control at 31 g/ha [8, 17] of the same compound?
A: 85%

Q: And the pest or weed control at 62 g/ha [8, 17]?
A: 85%

Q: And the pest or weed control at 125 g/ha [8, 18]?
A: 95%

Q: And the pest or weed control at 250 g/ha [8, 18]?
A: 100%

Q: What about the pest or weed control at 31 g/ha ([9]; post-emergence, Postemergence, read-out: Plant response rating (scale of 0 to 100), Cocklebur) of the same compound?
A: 90%

Q: What about the pest or weed control at 62 g/ha [9, 19] of the same compound?
A: 90%

Q: And the pest or weed control at 125 g/ha [9, 19]?
A: 100%

Q: What about the pest or weed control at 31 g/ha [9, 20] of the same compound?
A: 0%

Q: And the pest or weed control at 62 g/ha [9, 20]?
A: 0%

Q: And the pest or weed control at 125 g/ha ([9]; pre-emergence, Preemergence, scale 0 to 100, read-out: Plant response rating, Cocklebur)?
A: 5%

Q: And the pest or weed control at 250 g/ha ([9]; pre-emergence, Preemergence, 250 g ai/ha, scale 0 to 100, read-out: Plant response rating, Cocklebur)?
A: 30%

Q: And the Corn plant response rating (crop injury, 0 = no effect, 100 = complete kill) at 31 g/ha (corn (Zea mays); post-emergence, Postemergence, read-out: Plant response rating (scale of 0 to 100), Corn)?
A: 20%

Q: What about the Corn plant response rating (crop injury, 0 = no effect, 100 = complete kill) at 62 g/ha (corn (Zea mays); [21]) of the same compound?
A: 50%

Q: What about the Corn plant response rating (crop injury, 0 = no effect, 100 = complete kill) at 125 g/ha (corn (Zea mays); [21]) of the same compound?
A: 50%

Q: And the Corn plant response rating (crop injury, 0 = no effect, 100 = complete kill) at 31 g/ha (corn (Zea mays); [22])?
A: 0%

Q: And the Corn plant response rating (crop injury, 0 = no effect, 100 = complete kill) at 62 g/ha (corn (Zea mays); [22])?
A: 0%

Q: What about the Corn plant response rating (crop injury, 0 = no effect, 100 = complete kill) at 125 g/ha (corn (Zea mays); pre-emergence, Preemergence, scale 0 to 100, read-out: Plant response rating, Corn) of the same compound?
A: 20%

Q: What about the Corn plant response rating (crop injury, 0 = no effect, 100 = complete kill) at 250 g/ha (corn (Zea mays); pre-emergence, Preemergence, 250 g ai/ha, scale 0 to 100) of the same compound?
A: 30%

Q: What about the pest or weed control at 31 g/ha ([10]; 31 g ai/ha, read-out: Plant response rating (scale of 0 to 100), Chickweed) of the same compound?
A: 0%

Q: And the pest or weed control at 62 g/ha ([10]; 62 g ai/ha, scale 0 to 100 (0 no effect, 100 complete control), read-out: Chickweed plant response rating)?
A: 0%

Q: And the pest or weed control at 125 g/ha ([10]; 125 g ai/ha, scale 0 to 100 (0 no effect, 100 complete control), read-out: Chickweed plant response rating)?
A: 0%

Q: What about the pest or weed control at 250 g/ha ([10]; 250 g ai/ha, scale 0 to 100, read-out: Plant response rating, Chickweed) of the same compound?
A: 55%
